pEC50, pKi: −log10 of the molar value. Calls of active or inactive are those of the source. No cut-off for these calls is given here.
What was measured:
[1] = test system: HeLa; test: Cytotoxicity against human HeLa cells by Alamar blue assay; format: functional
[2] = test system: Trypanosoma brucei brucei; test: Antiprotozoal activity against Trypanosoma brucei brucei TC211 assessed as luminescence incubated for 24 to 48 hrs by ATPlite assay; format: functional, organism-based
[3] = test system: cathepsin L (CatL) versus rhodesain; test: Selectivity index, ratio of Ki for human liver CatL to Trypanosoma brucei rhodesain; conditions: read-out: Selectivity Index
[4] = biological target: T1, Procathepsin L (Homo sapiens, UniProt P07711); test: Inhibition of human liver CatL assessed as fluorescence using Cbz-Phe-Arg-AMC as substrate measured at second inhibition step by fluorometric enzyme assays
[5] = biological target: T2, Rhodesain (Trypanosoma brucei rhodesiense, UniProt Q95PM0); test: Inhibition of Trypanosoma brucei rhodesain assessed as fluorescence using Cbz-Phe-Arg-AMC as substrate measured at second inhibition step by fluorometric enzyme assays
[6] = biological target: T3, Cathepsin B (Homo sapiens, UniProt P07858); test: Inhibition of human liver CatB assessed as fluorescence using Cbz-Phe-Arg-AMC as substrate at 11 uM by fluorometric enzyme assays
[7] = biological target: Proteasome Macropain subunit (Homo sapiens) (UniProt P49721); test: Inhibition of trypsin-like activity of human 20S proteasome at 11 uM using boc-Leu-Arg-Arg-AMC as fluorogenic substrate by microplate reader relative to control
[8] = species on record: Homo sapiens; test: Inhibition of alpha-chymotrypsin-like activity of human 20S proteasome at 11 uM using Succ-Leu-Leu-Val-Tyr-AMC as fluorogenic substrate by microplate reader relative to control
[9] = species on record: Homo sapiens; test: Inhibition of caspase-like activity of human 20S proteasome at 11 uM using Cbz-Leu-Leu-Glu-AMC as fluorogenic substrate by microplate reader relative to control
[10] = test system: J774.1; test: Cytotoxicity against mouse J774.1 cells by Alamar blue assay; format: functional
[11] = test system: Dengue virus; test: Inhibition of Dengue virus NS2B-NS3 protease assessed as fluorescent emission using boc-Gly-Arg-Arg-AMC at 11 uM by microplate reader relative to control
[12] = test system: Trypanosoma brucei brucei; test: Antiprotozoal activity against Trypanosoma brucei brucei BS449 assessed as luminescence incubated for 24 to 48 hrs by ATPlite assay; format: functional, organism-based
[13] = biological target: Rhodesain (Trypanosoma brucei rhodesiense) (UniProt Q95PM0); test: Inhibition of Trypanosoma brucei rhodesain assessed as rate constant of association using Cbz-Phe-Arg-AMC as substrate by fluorometric enzyme assays
[14] = biological target: Rhodesain (Trypanosoma brucei rhodesiense) (UniProt Q95PM0); test: Inhibition of Trypanosoma brucei rhodesain assessed as rate constant of dissociation of the final complex using Cbz-Phe-Arg-AMC as substrate by fluorometric enzyme assays
[15] = biological target: T2, Rhodesain; test: Inhibition of Trypanosoma brucei rhodesain assessed as fluorescence using Cbz-Phe-Arg-AMC as substrate measured using Dixon equation by fluorometric enzyme assays
[16] = biological target: T1, Procathepsin L; test: Inhibition of human CatL assessed as fluorescence using Cbz-Phe-Arg-AMC as substrate measured using Dixon equation by fluorometric enzyme assays; set-up: species or system Liver
[17] = biological target: T3, Cathepsin B; test: Inhibition of human liver CatB assessed as fluorescence using Cbz-Phe-Arg-AMC as substrate by fluorometric enzyme assays
[18] = biological target: Rhodesain (Trypanosoma brucei rhodesiense) (UniProt Q95PM0); test: Reversible inhibition of Trypanosoma brucei rhodesain assessed as reversibility by measuring residual enzymatic activity using Cbz-Phe-Arg-AMC as substrate after 1 hr by fluorometry based dialysis experiment relative to control
[19] = biological target: Rhodesain (Trypanosoma brucei rhodesiense) (UniProt Q95PM0); test: Binding affinity to Trypanosoma brucei rhodesain assessed as protein-ligand adducts by MALDI-TOF MS analysis

Sequence of Proteasome Macropain subunit (Homo sapiens) (P49721 whole entry): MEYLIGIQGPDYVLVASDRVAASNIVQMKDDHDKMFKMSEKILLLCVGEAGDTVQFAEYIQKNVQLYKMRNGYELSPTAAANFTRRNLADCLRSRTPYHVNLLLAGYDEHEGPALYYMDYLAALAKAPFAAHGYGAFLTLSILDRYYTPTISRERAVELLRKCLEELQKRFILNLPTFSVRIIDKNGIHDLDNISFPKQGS
T1 sequence (P07711 whole entry): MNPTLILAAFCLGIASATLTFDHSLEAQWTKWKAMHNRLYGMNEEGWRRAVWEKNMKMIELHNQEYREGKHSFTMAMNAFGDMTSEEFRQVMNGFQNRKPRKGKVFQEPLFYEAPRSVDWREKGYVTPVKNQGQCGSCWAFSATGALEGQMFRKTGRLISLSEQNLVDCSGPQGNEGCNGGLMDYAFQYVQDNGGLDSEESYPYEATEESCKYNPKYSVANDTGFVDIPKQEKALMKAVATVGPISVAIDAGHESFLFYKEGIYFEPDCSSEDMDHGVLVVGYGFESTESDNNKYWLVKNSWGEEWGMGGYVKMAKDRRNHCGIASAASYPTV
T2 sequence (Q95PM0 whole entry): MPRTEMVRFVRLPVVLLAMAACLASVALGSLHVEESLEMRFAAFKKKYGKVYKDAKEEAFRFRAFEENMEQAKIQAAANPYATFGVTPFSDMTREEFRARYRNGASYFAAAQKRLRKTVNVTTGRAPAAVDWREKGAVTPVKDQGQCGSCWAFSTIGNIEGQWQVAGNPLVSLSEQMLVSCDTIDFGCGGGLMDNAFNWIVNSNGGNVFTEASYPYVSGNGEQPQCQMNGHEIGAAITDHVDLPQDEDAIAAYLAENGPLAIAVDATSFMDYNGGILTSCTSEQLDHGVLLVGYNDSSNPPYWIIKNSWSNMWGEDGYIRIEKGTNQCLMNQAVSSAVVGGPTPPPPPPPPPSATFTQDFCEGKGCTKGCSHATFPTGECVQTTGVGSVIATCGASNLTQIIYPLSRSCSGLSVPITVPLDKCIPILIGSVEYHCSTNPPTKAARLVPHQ
Sequence of Rhodesain (Trypanosoma brucei rhodesiense) (Q95PM0 1-450): as the sequence (Q95PM0 whole entry) above

SMILES	CC50 [1] [nM]	selectivity ratio [3]	pKi [4]	pKi [5]	inhibition [7]	inhibition [8]	inhibition [9]	other results
Cc1ccc(C[C@H](NC(=O)c2ccc3c(c2)OCCO3)C(=O)N[C@H](/C=C(\F)S(=O)(=O)c2ccccc2)CCc2ccccc2)cc1	> 100000							pEC50 [2]: 6.10
Cc1ccc(C[C@H](NC(=O)c2ccc3c(c2)OCCO3)C(=O)N[C@H](/C=C(\F)S(=O)(=O)Cc2ccccc2)CCc2ccccc2)cc1		6	7.12	7.85				inhibition [6]: 8%
O=C(N[C@@H](Cc1ccccc1)C(=O)N[C@H](/C=C(\F)S(=O)(=O)c1ccccc1)CCc1ccccc1)c1ccc2c(c1)OCCO2					inactive	inactive	26%	
CN1CCN(C(=O)N[C@@H](Cc2ccccc2)C(=O)N[C@H](/C=C(\F)S(=O)(=O)c2ccccc2)CSCc2ccccc2)CC1	8000				14%	71%	inactive	CC50 [10]: 8700 nM; inhibition [11]: 13%; pEC50 [12]: 5.52
O=C(N[C@@H](Cc1ccccc1)C(=O)N[C@H](/C=C(\F)S(=O)(=O)Oc1ccccc1)CCc1ccccc1)c1ccc2c(c1)OCCO2				7.35				K [13]: 0.045 s⁻¹; K [14]: 0.011 s⁻¹; pKi [15]: 8.05
Cc1ccc(C[C@H](NC(=O)c2cc(F)cc(F)c2)C(=O)N[C@H](/C=C(\F)S(=O)(=O)Oc2ccccc2)CCc2ccccc2)cc1				7.47				K [13]: 0.049 s⁻¹; K [14]: 0.009 s⁻¹; pKi [15]: 8.30
Cc1cccc(C[C@H](NC(=O)c2ccncc2)C(=O)N[C@H](/C=C(\F)S(=O)(=O)Oc2ccccc2)CCc2ccccc2)c1		4	6.58	7.03				K [13]: 0.062 s⁻¹; pKi [16]: 7.52; K [14]: 0.005 s⁻¹; pKi [15]: 8.15; inhibition [6]: 50%
Cc1cccc(C[C@H](NC(=O)c2cc(F)cc(F)c2)C(=O)N[C@H](/C=C(\F)S(=O)(=O)Cc2ccccc2)CCc2ccccc2)c1				6.42				
CSCC[C@@H](/C=C(\F)S(=O)(=O)c1ccccc1)NC(=O)[C@H](Cc1ccccc1)NC(=O)c1ccncc1		10	6.24	7.25				pKi [17]: 6.00
Cc1ccc(C[C@H](NC(=O)c2ccncc2)C(=O)N[C@H](/C=C(\F)S(=O)(=O)c2ccccc2)CCc2ccccc2)cc1	> 100000				12%	13%	28%	Activity [18]: 29%; pEC50 [2]: 5.72
O=C(N[C@@H](Cc1ccccc1)C(=O)N[C@H](/C=C(\F)S(=O)(=O)Cc1ccccc1)CCc1ccccc1)c1ccc2c(c1)OCCO2				7.34				
Cc1ccc(C[C@H](NC(=O)c2ccncc2)C(=O)N[C@H](/C=C(\F)S(=O)(=O)Oc2ccccc2)CCc2ccccc2)cc1	> 100000	26	6.50	7.62	10%	20%	44%	inhibition [11]: inactive; K [13]: 0.075 s⁻¹; pKi [16]: 7.11; K [14]: 0.01 s⁻¹; Activity [18]: 89%; pKi [15]: 8.52; pEC50 [2]: 5.72; inhibition [6]: 38%
Cc1cccc(C[C@H](NC(=O)c2ccc3c(c2)OCCO3)C(=O)N[C@H](/C=C(\F)S(=O)(=O)c2ccccc2)CCc2ccccc2)c1				7.46				
CSCC[C@@H](/C=C(\F)S(=O)(=O)c1ccccc1)NC(=O)[C@H](Cc1ccccc1)NC(=O)N1CCN(C)CC1	77000				inactive	inactive	18%	CC50 [10]: 43000 nM; pEC50 [12]: 4.85
Cc1cccc(C[C@H](NC(=O)c2ccncc2)C(=O)N[C@H](/C=C(\F)S(=O)(=O)Cc2ccccc2)CCc2ccccc2)c1		2	6.91	7.21				
Cc1ccc(C[C@H](NC(=O)c2cc(F)cc(F)c2)C(=O)N[C@H](/C=C(\F)S(=O)(=O)Cc2ccccc2)CCc2ccccc2)cc1				7.54				
Cc1ccc(C[C@H](NC(=O)c2ccc3c(c2)OCCO3)C(=O)N[C@H](/C=C(\F)S(=O)(=O)Oc2ccccc2)CCc2ccccc2)cc1	> 100000	6	6.46	7.01	inactive	22%	31%	inhibition [11]: 11%; K [13]: 0.065 s⁻¹; pKi [16]: 7.41; pEC50 [12]: 6.85; K [14]: 0.005 s⁻¹; pKi [15]: 8.15; inhibition [6]: 14%
CN1CCN(C(=O)N[C@@H](Cc2ccccc2)C(=O)N[C@H](/C=C(\F)S(=O)(=O)c2ccccc2)CCc2ccccc2)CC1	10000				inactive	13%	16%	CC50 [10]: 38000 nM; inhibition [11]: inactive; pEC50 [12]: 4.90; Activity [19]: Active
